Data reported in patent US20240245679A1, “AGENT FOR TREATING INFECTIOUS DISEASES AGAINST MUTANT VIRUSES OF NOVEL CORONAVIRUS” (FUJIFILM TOYAMA CHEMICAL CO., LTD., priority 2021, published 2024).

Tests used:
Assay in all cases: microbe, parasite or virus in culture
Assay type in all cases: cell-based, SARS-COV-2
[1] = system: hCoV-19/Japan/TY11-927-P1/2021 (B.1.617 line); settings: Severe acute respiratory syndrome coronavirus 2, VeroE6/TMPRSS2; 40 hours
[2] = system: hCoV-19/Japan/TY7-501/2021 (P.1 line); settings: Severe acute respiratory syndrome coronavirus 2, VeroE6/TMPRSS2; 40 hours
[3] = system: hCoV-19/Japan/TY2-312-P1/2020 (B.1.1 line)
[4] = system: hCoV-19/Japan/TY7-503/2021 (P.1 line); settings: Severe acute respiratory syndrome coronavirus 2, Vero 76, read-out: EC90 value (90% effective concentration)
SARS-2 WA1/2020 = settings: Severe acute respiratory syndrome coronavirus 2, Vero C1008; 72 hours
SARS-2 Omicron = settings: Severe acute respiratory syndrome coronavirus 2, Vero C1008; 72 hours
USA_WA1/2020 (A line) = settings: Severe acute respiratory syndrome coronavirus 2, Vero 76, read-out: EC90 value (90% effective concentration)
[5] = system: hCoV-19/Japan/QK002/2020 (B.1.1.7 line); settings: Severe acute respiratory syndrome coronavirus 2, VeroE6/TMPRSS2; 40 hours
[6] = system: hCoV-19/Japan/TY11-330-P1/2021 (B.1.617.1 line); settings: Severe acute respiratory syndrome coronavirus 2, VeroE6/TMPRSS2; 40 hours
[7] = system: hCoV-19/England/204820464/2020 (B.1.1.7 line); settings: Severe acute respiratory syndrome coronavirus 2, Vero 76, read-out: EC90 value (90% effective concentration)
SARS-2-9017 (delta) = settings: Severe acute respiratory syndrome coronavirus 2, Vero C1008; 72 hours
[8] = system: hCoV-19/Japan/TY8-612/2021 (B.1.351 line); settings: Severe acute respiratory syndrome coronavirus 2, VeroE6/TMPRSS2; 40 hours

`NC(=O)c1nc(F)cnc1O` [Compound A, 6-fluoro-3-hydroxy-2-pyrazinecarboxamide] gave an EC90 [1] of 294 µM, an EC90 [2] of 306 µM and an EC90 ([3]; 40 hours) of 466 µM. The EC90 ([3]; Severe acute respiratory syndrome coronavirus 2, VeroE6/TMPRSS2, 40 h) was 302 µM, the EC90 [4] was 190 µM and the EC90 (SARS-2 WA1/2020) was 125 to 250 µM. It also gave an EC90 (SARS-2 Omicron) of 62.5 to 125 µM, an EC90 (USA_WA1/2020 (A line)) of 68 µM and an EC90 [5] of 359 µM. The EC90 [6] was 491 µM, the EC90 [7] was 83 µM and the EC90 (SARS-2-9017 (delta)) was 125 to 250 µM. For the same molecule, the EC90 [8] was 223 µM.
